Results reported in PMC7587356, “High-Throughput Screening for Inhibitors of the SARS-CoV-2 Protease Using a FRET-Biosensor” (Molecules, 2020).
Where a name gives a salt, the structure may show the parent alone. Read-outs that look alike come from different tables or passages of the source.

Molecular target: SARS-CoV-2 3CLpro (Severe acute respiratory syndrome coronavirus 2, UniProt P0DTD1)
Test: biochemical
Assay type: biochemical
Set-up: Replicate_1 / Replicate_2 / mean / mean (LOPAC_screen_w_protease): unit not given here
Conditions: for inhibition at 5 µM: 4 h
[1] = sheet LOPAC_screen_w_protease, primary screen of LOPAC1280 at 5 µM with protease, mean of the two replicates, read-out: mean
[2] = sheet LOPAC_screen_w_protease, primary screen of LOPAC1280 at 5 µM with protease, replicate 1, read-out: Replicate_1
[3] = sheet LOPAC_screen_w_protease, primary screen of LOPAC1280 at 5 µM with protease, replicate 2, read-out: Replicate_2
[4] = sheet LOPAC_screen_w_protease, primary screen with protease, mean of two replicates, read-out: mean
[5] = sheet LOPAC_screen_w_protease, primary screen with protease, replicate 1, read-out: Replicate_1
[6] = sheet LOPAC_screen_w_protease, primary screen with protease, replicate 2, read-out: Replicate_2
[7] = sheet LOPAC_screen_w_protease, primary screen with protease, compound at 5 µM, mean of two replicates, read-out: mean
[8] = sheet LOPAC_screen_w_protease, primary screen with protease, compound at 5 µM, replicate 1, read-out: Replicate_1
[9] = sheet LOPAC_screen_w_protease, primary screen with protease, compound at 5 µM, replicate 2, read-out: Replicate_2
[10] = LOPAC1280 primary screen with protease, 5 µM compound, replicate 1, read-out: Replicate_1 (LOPAC_screen_w_protease)
[11] = LOPAC1280 primary screen with protease, 5 µM compound, replicate 2, read-out: Replicate_2 (LOPAC_screen_w_protease)
[12] = sheet LOPAC_screen_w_protease, primary screen with protease, 5 µM, mean of two replicates, read-out: mean
[13] = sheet LOPAC_screen_w_protease, primary screen with protease, 5 µM, replicate 1, read-out: Replicate_1
[14] = sheet LOPAC_screen_w_protease, primary screen with protease, 5 µM, replicate 2, read-out: Replicate_2
[15] = sheet LOPAC_screen_w_protease, LOPAC1280 at 5 µM, mean of two replicates, read-out: mean
[16] = sheet LOPAC_screen_w_protease, LOPAC1280 at 5 µM, replicate 1, read-out: Replicate_1
[17] = sheet LOPAC_screen_w_protease, LOPAC1280 at 5 µM, replicate 2, read-out: Replicate_2
[18] = sheet LOPAC_screen_w_protease, LOPAC1280 at 5 µM, mean of two replicates
[19] = sheet LOPAC_screen_w_protease, LOPAC1280 at 5 µM, replicate 1
[20] = sheet LOPAC_screen_w_protease, LOPAC1280 at 5 µM, replicate 2
[21] = sheet LOPAC_screen_w_protease, LOPAC1280 primary screen with protease, 5 µM compound, mean of the two replicates, read-out: mean
[22] = sheet LOPAC_screen_w_protease, LOPAC1280 primary screen with protease, 5 µM compound, replicate 1, read-out: Replicate_1
[23] = sheet LOPAC_screen_w_protease, LOPAC1280 primary screen with protease, 5 µM compound, replicate 2, read-out: Replicate_2
[24] = LOPAC1280 primary screen with protease, 5 µM compound, mean of the two replicates
[25] = sheet LOPAC_screen_w_protease, LOPAC1280 primary screen at 5 µM, with protease, mean of the two replicates, read-out: mean
[26] = sheet LOPAC_screen_w_protease, LOPAC1280 primary screen at 5 µM, with protease, replicate 1, read-out: Replicate_1
[27] = sheet LOPAC_screen_w_protease, LOPAC1280 primary screen at 5 µM, with protease, replicate 2, read-out: Replicate_2
[28] = sheet LOPAC_screen_w_protease, primary screen with protease, 5 µM, mean of two replicates
[29] = sheet LOPAC_screen_w_protease, primary screen with protease, 5 µM, replicate 1
[30] = sheet LOPAC_screen_w_protease, primary screen with protease, 5 µM, replicate 2

`NC[C@@H]1O[C@H](O[C@H]2[C@@H](O)[C@H](O[C@@H]3[C@@H](O)[C@H](N)C[C@H](N)[C@H]3O[C@H]3O[C@H](CO)[C@@H](O)[C@H](O)[C@H]3N)O[C@@H]2CO)[C@H](N)[C@@H](O)[C@@H]1O` [Paromomycin sulfate] gave an inhibition at 5 µM (sheet LOPAC_screen_w_protease, primary screen at 5 µM, mean of two replicates, read-out: mean (LOPAC screen with protease)) of 7.62%, an inhibition at 5 µM (sheet LOPAC_screen_w_protease, primary screen at 5 µM, replicate 1, read-out: Replicate_1 (LOPAC screen with protease)) of 8.4% and an inhibition at 5 µM (sheet LOPAC_screen_w_protease, primary screen at 5 µM, replicate 2, read-out: Replicate_2 (LOPAC screen with protease)) of 6.83%.
With `C=C1C(=O)O[C@H]2[C@H]1CC/C(C)=C/CC[C@@]1(C)O[C@@H]21` [Parthenolide] the inhibition at 5 µM [1] was 3.43%, the inhibition at 5 µM [2] was 3.99% and the inhibition at 5 µM [3] was 2.86%.
`CN1C(C)(C)CCCC1(C)C` [Pempidine tartrate] gave an inhibition at 5 µM [4] of 2.3%, an inhibition at 5 µM [5] of 2.5% and an inhibition at 5 µM [6] of 2.11%.
`CC(=O)CCCCn1c(=O)c2c(ncn2C)n(C)c1=O` [Pentoxifylline] showed an inhibition at 5 µM [7] of 2.98%, an inhibition at 5 µM [8] of 2.78% and an inhibition at 5 µM [9] of 3.18%.
For `C1CCc2nnnn2CC1` [Pentylenetetrazole], the inhibition at 5 µM [10] was 0.452%, the inhibition at 5 µM [11] was 2.75% and the “mean (LOPAC_screen_w_protease)” value (LOPAC1280 primary screen with protease, 5 µM compound, mean of two replicates) was 1.601.
In the case of `CCCN1C[C@H](CSC)C[C@@H]2c3cccc4[nH]cc(c34)C[C@H]21` [Pergolide methanesulfonate], the inhibition at 5 µM [12] was 0.241%, the inhibition at 5 µM [13] was 0.0285% and the inhibition at 5 µM [14] was 0.454%.
Compound `OCCN1CCN(CCCN2c3ccccc3Sc3ccc(Cl)cc32)CC1` [Perphenazine] has an inhibition at 5 µM [15] of 1.14%, an inhibition at 5 µM [16] of 0.377% and an inhibition at 5 µM [17] of 1.91%.
`NCC(CP(=O)(O)O)c1ccc(Cl)cc1` (stereo not drawn) [Phaclofen] was tested, and the mean [18] was 1.154, the Replicate_1 [19] was -0.2982 and the Replicate_2 [20] was 2.606.
Compound `NC(=Nc1ccccc1)NC(=O)c1nc(Cl)c(N)nc1N` [Phenamil methanesulfonate] has an inhibition at 5 µM [4] of 2.43%, an inhibition at 5 µM [5] of 2.05% and an inhibition at 5 µM [6] of 2.81%.
In the case of `NNCCc1ccccc1` [Phenelzine sulfate], the inhibition at 5 µM (read-out: Replicate_1) was 0.173%, the inhibition at 5 µM (read-out: Replicate_2) was -1.72% and the inhibition at 5 µM (read-out: mean) was -0.773%.
For `CN(C)CCC(c1ccccc1)c1ccccn1` (stereo not drawn) [Pheniramine maleate], the inhibition at 5 µM [12] was -0.749%, the inhibition at 5 µM [13] was 0.594% and the inhibition at 5 µM [14] was -2.09%.
Compound `CC(COc1ccccc1)N(CCCl)Cc1ccccc1` (stereo not drawn) [Phenoxybenzamine hydrochloride] has an inhibition at 5 µM [21] of 4.33%, an inhibition at 5 µM [22] of 4.24% and an inhibition at 5 µM [23] of 4.41%.
With `Cc1ccc(N(CC2=NCCN2)c2cccc(O)c2)cc1` [Phentolamine mesylate] the inhibition at 5 µM [12] was -0.0499%, the inhibition at 5 µM [13] was -0.162% and the inhibition at 5 µM [14] was 0.062%.
With `CCCCC1C(=O)N(c2ccccc2)N(c2ccccc2)C1=O` [Phenylbutazone] the inhibition at 5 µM [21] was 6.15%, the inhibition at 5 µM [22] was 6% and the inhibition at 5 µM [23] was 6.3%.
`O=C1NC(=O)C(c2ccccc2)(c2ccccc2)N1` [Phenytoin sodium] was tested, and the inhibition at 5 µM [10] was 1.2%, the inhibition at 5 µM [11] was 2.6% and the “mean (LOPAC_screen_w_protease)” value [24] was 1.899.
For `O=C(CCc1ccc(O)cc1)c1c(O)cc(O)cc1O` [Phloretin], the inhibition at 5 µM (read-out: Replicate_1 (LOPAC screen with protease)) was 8.32%, the inhibition at 5 µM (read-out: Replicate_2 (LOPAC screen with protease)) was 5.55% and the inhibition at 5 µM (read-out: mean (LOPAC screen with protease)) was 6.94%.
Compound `CCCCCCCCCCCCCC(=O)O[C@@H]1[C@@H](C)[C@@]2(O)[C@@H](C=C(CO)C[C@]3(O)C(=O)C(C)=C[C@@H]23)[C@@H]2C(C)(C)[C@]12OC(C)=O` [Phorbol 12-myristate 13-acetate] has an inhibition at 5 µM (read-out: Replicate_1) of 1.97%, an inhibition at 5 µM (read-out: Replicate_2) of -0.596% and an inhibition at 5 µM (read-out: mean) of 0.686%.
`C[C@@H]1O[C@@H]1P(=O)(O)O` [Phosphomycin disodium] gave an inhibition at 5 µM [12] of -0.258%, an inhibition at 5 µM [13] of -0.0304% and an inhibition at 5 µM [14] of -0.485%.
Work on `O=C(O)CP(=O)(O)O` [Phosphonoacetic acid] yielded an inhibition at 5 µM [25] of 0.854%, an inhibition at 5 µM [26] of 0.755% and an inhibition at 5 µM [27] of 0.954%.
Compound `CC(C)C[C@H](NP(=O)([O-])O[C@H]1O[C@H](C)[C@@H](O)[C@H](O)[C@@H]1O)C(=O)N[C@@H](Cc1c[nH]c2ccccc12)C(=O)[O-].[Na+].[Na+]` [Phosphoramidon disodium] has a mean [28] of 0.1697, a Replicate_1 [29] of 0.5227 and a Replicate_2 [30] of -0.1832.
With `O=C([O-])CCC(NC(=O)c1ccccc1C(=O)[O-])C(=O)[O-].[Na+].[Na+].[Na+]` [Phthalamoyl-L-glutamic acid trisodium] the mean [28] was 0.2394, the Replicate_1 [29] was 0.8142 and the Replicate_2 [30] was -0.3354.
`COc1ccc(C(=O)NCc2cccnc2)cc1C(=O)NCc1cccnc1` [Picotamide] gave an inhibition at 5 µM [25] of 0.551%, an inhibition at 5 µM [26] of 1.7% and an inhibition at 5 µM [27] of -0.597%.
For `CC[C@@H]1C(=O)OC[C@@H]1Cc1cncn1C` [Pilocarpine nitrate], the inhibition at 5 µM [12] was -0.33%, the inhibition at 5 µM [13] was -0.127% and the inhibition at 5 µM [14] was -0.532%.
With `O=c1[nH]c2ccccc2n1C1CCN(CCCC(c2ccc(F)cc2)c2ccc(F)cc2)CC1` [Pimozide] the inhibition at 5 µM [7] was 2.77%, the inhibition at 5 µM [8] was 3.25% and the inhibition at 5 µM [9] was 2.29%.
In the case of `CC(N/C(=N\C#N)Nc1ccncc1)C(C)(C)C` (stereo not drawn) [Pinacidil], the inhibition at 5 µM [15] was 1.05%, the inhibition at 5 µM [16] was 2.49% and the inhibition at 5 µM [17] was -0.383%.
Compound `CC(C)NCC(O)COc1cccc2[nH]ccc12` (stereo not drawn) [Pindolol] has an inhibition at 5 µM [25] of 0.855%, an inhibition at 5 µM [26] of 0.309% and an inhibition at 5 µM [27] of 1.4%.
`O=S(=O)(O)C1CCNCC1` [Piperidine-4-sulphonic acid] showed a mean (sheet LOPAC_screen_w_protease, LOPAC1280 primary screen with protease, 5 µM compound, mean of the two replicates) of 4.585, a Replicate_1 (sheet LOPAC_screen_w_protease, LOPAC1280 primary screen with protease, 5 µM compound, replicate 1) of 5.428 and a Replicate_2 (sheet LOPAC_screen_w_protease, LOPAC1280 primary screen with protease, 5 µM compound, replicate 2) of 3.743.
`NC(=O)CN1CCCC1=O` [Piracetam] showed an inhibition at 5 µM [1] of 3.49%, an inhibition at 5 µM [2] of 5.61% and an inhibition at 5 µM [3] of 1.37%.
Compound `Cc1nc2ccccn2c(=O)c1CCN1CCC(C(=O)c2ccc(F)cc2)CC1` [Pirenperone] has an inhibition at 5 µM [25] of 0.688%, an inhibition at 5 µM [26] of 0.852% and an inhibition at 5 µM [27] of 0.525%.
In the case of `CN1CCN(CC(=O)N2c3ccccc3C(=O)Nc3cccnc32)CC1` [Pirenzepine dihydrochloride], the inhibition at 5 µM [10] was 2.98%, the inhibition at 5 µM [11] was 0.888% and the “mean (LOPAC_screen_w_protease)” value [24] was 1.931.
For `Cc1ccc(=O)n(-c2ccccc2)c1` [Pirfenidone], the inhibition at 5 µM [1] was 4.02%, the inhibition at 5 µM [2] was 2.71% and the inhibition at 5 µM [3] was 5.33%.
In the case of `O=C(O)/C=C\C(=O)O.c1cnc(N2CCN(Cc3ccc4c(c3)OCO4)CC2)nc1` [Piribedil maleate], the mean (sheet LOPAC_screen_w_protease, LOPAC1280 primary screen at 5 µM, with protease, mean of the two replicates) was 0.4342, the Replicate_1 (sheet LOPAC_screen_w_protease, LOPAC1280 primary screen at 5 µM, with protease, replicate 1) was -0.05723 and the Replicate_2 (sheet LOPAC_screen_w_protease, LOPAC1280 primary screen at 5 µM, with protease, replicate 2) was 0.9256.
In the case of `CN1C(C(=O)Nc2ccccn2)=C(O)c2ccccc2S1(=O)=O` [Piroxicam], the inhibition at 5 µM [7] was 3.01%, the inhibition at 5 µM [8] was 1.9% and the inhibition at 5 µM [9] was 4.12%.
Compound `COc1cc([C@@H]2c3cc4c(cc3[C@H](O)[C@H]3COC(=O)[C@H]23)OCO4)cc(OC)c1OC` [Podophyllotoxin] has an inhibition at 5 µM (read-out: Replicate_1) of 3.42%, an inhibition at 5 µM (read-out: Replicate_2) of 4.17% and an inhibition at 5 µM (read-out: mean) of 3.8%.
Work on `O=C(C1CCCCC1)N1CC(=O)N2CCc3ccccc3C2C1` (stereo not drawn) [Praziquantel] yielded an inhibition at 5 µM [1] of 3.73%, an inhibition at 5 µM [2] of 3.31% and an inhibition at 5 µM [3] of 4.15%.
`CC(=O)[C@H]1CC[C@H]2[C@@H]3CC=C4C[C@@H](OS(=O)(=O)[O-])CC[C@]4(C)[C@H]3CC[C@]12C.[Na+]` [Pregnenolone sulfate sodium] showed a mean [18] of 1.045, a Replicate_1 [19] of 0.04623 and a Replicate_2 [20] of 2.043.
